pIC50: −log10 of the molar value. Converted amounts (≈) assume the structure as drawn.
Tests used:
[1] = biological target: T1, Prostaglandin E2 receptor EP3 subtype (Homo sapiens, UniProt P43115); test: Antagonist activity at human EP3 receptor transfected in CHO/Galpha16 cells preincubated for 15 mins followed by PGE2 addition by calcium flux assay; assay type: functional, cell-based
T1 sequence (P43115 whole entry): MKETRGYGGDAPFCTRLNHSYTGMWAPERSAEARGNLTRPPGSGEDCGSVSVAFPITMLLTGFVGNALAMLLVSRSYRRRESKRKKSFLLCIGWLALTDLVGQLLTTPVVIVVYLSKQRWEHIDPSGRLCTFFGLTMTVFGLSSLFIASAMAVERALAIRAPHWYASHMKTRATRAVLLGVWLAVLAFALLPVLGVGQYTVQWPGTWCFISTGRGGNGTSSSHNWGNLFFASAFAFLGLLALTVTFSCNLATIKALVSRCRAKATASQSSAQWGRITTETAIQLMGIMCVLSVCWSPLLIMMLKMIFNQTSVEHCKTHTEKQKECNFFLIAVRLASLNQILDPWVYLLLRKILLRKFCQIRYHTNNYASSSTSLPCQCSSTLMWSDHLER

[2] = Clearance in BALB/c mouse at 5 mg/kg, po measured upto 24 hrs by LC-MS/MS analysis; assay type: ADME, organism-based; conditions: in vivo
CYP1A2 = biological target: T2, CYP1A2 (Homo sapiens, UniProt P05177); test: Inhibition of CYP1A2 (unknown origin) at 20 uM; assay type: ADME
T2 sequence (P05177 whole entry): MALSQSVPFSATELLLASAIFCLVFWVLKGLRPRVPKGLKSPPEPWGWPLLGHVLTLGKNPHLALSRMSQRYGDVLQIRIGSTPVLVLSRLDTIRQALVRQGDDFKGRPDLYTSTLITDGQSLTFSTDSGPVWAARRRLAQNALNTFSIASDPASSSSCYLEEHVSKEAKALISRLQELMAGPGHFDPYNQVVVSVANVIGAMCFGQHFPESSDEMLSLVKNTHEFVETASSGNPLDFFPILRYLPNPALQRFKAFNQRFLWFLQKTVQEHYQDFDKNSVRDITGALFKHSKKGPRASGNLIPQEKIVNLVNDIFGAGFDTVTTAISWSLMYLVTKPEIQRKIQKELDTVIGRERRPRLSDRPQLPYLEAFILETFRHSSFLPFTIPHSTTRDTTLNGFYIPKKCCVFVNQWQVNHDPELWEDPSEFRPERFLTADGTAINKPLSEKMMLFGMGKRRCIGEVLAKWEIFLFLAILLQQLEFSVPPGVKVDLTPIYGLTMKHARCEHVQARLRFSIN

[3] = Clearance in BALB/c mouse at 1 mg/kg, iv measured upto 24 hrs by LC-MS/MS analysis; assay type: ADME, organism-based; conditions: in vivo
CYP2C9 = CYP2C9 (Homo sapiens, UniProt P11712); test: Inhibition of CYP2C9 (unknown origin) at 20 uM; assay type: ADME
Sequence of CYP2C9 (P11712 whole entry): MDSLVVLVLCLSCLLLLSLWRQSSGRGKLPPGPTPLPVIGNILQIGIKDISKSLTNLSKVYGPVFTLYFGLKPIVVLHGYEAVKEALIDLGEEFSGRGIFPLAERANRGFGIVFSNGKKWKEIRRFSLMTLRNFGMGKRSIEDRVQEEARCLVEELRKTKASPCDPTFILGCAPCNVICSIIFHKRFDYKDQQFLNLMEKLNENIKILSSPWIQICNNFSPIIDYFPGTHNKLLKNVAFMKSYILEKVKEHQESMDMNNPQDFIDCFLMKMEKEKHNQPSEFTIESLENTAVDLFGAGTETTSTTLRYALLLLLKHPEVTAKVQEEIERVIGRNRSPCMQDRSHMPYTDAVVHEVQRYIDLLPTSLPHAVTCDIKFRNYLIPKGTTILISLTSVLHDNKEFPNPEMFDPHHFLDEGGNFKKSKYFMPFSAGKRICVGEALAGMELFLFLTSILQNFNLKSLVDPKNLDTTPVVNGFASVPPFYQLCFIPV

[4] = Volume of distribution at steady state in BALB/c mouse at 1 mg/kg, iv measured upto 24 hrs by LC-MS/MS analysis; assay type: ADME, organism-based; conditions: in vivo, read-out: Vdss
[5] = Plasma protien binding of the compound incubated for 24 hrs by equilibrium dialysis method; assay type: ADME, cell-free; conditions: read-out: PPB (converted)
[6] = Cmax in BALB/c mouse at 1 mg/kg, iv measured upto 24 hrs by LC-MS/MS analysis; assay type: ADME, organism-based; parameters: time < 24 hrs, dose 1 mg/kg, route iv; conditions: in vivo
[7] = Metabolic stability in mouse liver microsomes assessed as intrinsic clearance; assay type: ADME, Microsome; conditions: read-out: CLH
[8] = biological target: Prostaglandin E2 receptor EP4 subtype (Mus musculus, UniProt P32240); test: Antagonist activity at mouse EP4 receptor transfected in CHO/Galpha16 cells preincubated for 15 mins followed by PGE2 addition by calcium flux assay; assay type: functional, cell-based
Sequence of Prostaglandin E2 receptor EP4 subtype (P32240 whole entry): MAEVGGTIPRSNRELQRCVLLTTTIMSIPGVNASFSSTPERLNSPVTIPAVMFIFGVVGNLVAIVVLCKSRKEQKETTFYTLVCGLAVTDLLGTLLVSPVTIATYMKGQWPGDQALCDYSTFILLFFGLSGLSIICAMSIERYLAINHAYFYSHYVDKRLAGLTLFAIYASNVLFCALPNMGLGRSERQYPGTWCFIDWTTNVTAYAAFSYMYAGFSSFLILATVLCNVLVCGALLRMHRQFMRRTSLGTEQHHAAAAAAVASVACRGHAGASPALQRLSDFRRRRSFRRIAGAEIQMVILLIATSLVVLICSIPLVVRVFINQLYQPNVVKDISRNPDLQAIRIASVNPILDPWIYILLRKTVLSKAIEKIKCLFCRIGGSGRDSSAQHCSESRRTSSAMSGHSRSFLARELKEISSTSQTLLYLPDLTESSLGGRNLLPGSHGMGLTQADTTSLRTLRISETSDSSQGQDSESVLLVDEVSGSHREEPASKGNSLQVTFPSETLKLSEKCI

[9] = biological target: T3, Prostaglandin E2 receptor EP1 subtype (Homo sapiens, UniProt P34995); test: Antagonist activity at human EP1 receptor transfected in CHO/Galpha16 cells preincubated for 15 mins followed by PGE2 addition by calcium flux assay; assay type: functional, cell-based
T3 sequence (P34995 whole entry): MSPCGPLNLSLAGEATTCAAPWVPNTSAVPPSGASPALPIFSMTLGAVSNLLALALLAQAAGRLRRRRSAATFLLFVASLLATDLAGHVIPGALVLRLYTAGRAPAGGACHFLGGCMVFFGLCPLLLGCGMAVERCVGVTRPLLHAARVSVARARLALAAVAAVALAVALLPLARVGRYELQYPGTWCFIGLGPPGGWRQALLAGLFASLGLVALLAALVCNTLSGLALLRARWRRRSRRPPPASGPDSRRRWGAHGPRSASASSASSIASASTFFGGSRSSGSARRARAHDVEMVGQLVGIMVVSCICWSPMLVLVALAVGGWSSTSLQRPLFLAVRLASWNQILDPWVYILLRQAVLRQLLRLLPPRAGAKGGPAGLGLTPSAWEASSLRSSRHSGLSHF

[10] = Oral bioavailability in BALB/c mouse at 5 mg/kg measured upto 24 hrs by LC-MS/MS analysis; assay type: ADME, organism-based; conditions: in vivo
[11] = Metabolic stability in human liver microsomes assessed as half life; assay type: ADME, Microsome
[12] = Metabolic stability in human liver microsomes assessed as intrinsic clearance; assay type: ADME, Microsome; conditions: read-out: CLH
[13] = biological target: Prostaglandin E2 receptor EP2 subtype (Homo sapiens, UniProt P43116); test: Antagonist activity at human EP2 receptor transfected in CHO/Galpha16 cells preincubated for 15 mins followed by PGE2 addition by calcium flux assay; assay type: functional, cell-based
Sequence of Prostaglandin E2 receptor EP2 subtype (P43116 whole entry): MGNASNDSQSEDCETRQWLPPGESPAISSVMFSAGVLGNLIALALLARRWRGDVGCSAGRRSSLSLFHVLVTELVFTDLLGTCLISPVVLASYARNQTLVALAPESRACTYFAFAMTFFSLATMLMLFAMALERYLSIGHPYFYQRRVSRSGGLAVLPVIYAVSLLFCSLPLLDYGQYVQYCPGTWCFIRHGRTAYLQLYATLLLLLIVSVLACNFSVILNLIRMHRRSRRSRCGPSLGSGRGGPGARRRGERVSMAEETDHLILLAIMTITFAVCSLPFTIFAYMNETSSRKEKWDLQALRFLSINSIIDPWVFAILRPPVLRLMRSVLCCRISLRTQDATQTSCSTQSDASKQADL

[14] = Metabolic stability in mouse liver microsomes assessed as parent compound remaining at 10 uM measured after 60 mins; assay type: ADME, Microsome; conditions: read-out: Stability
[15] = AUC (0 to 24 hrs) in BALB/c mouse at 1 mg/kg, iv measured upto 24 hrs by LC-MS/MS analysis; assay type: ADME, organism-based; parameters: dose 1 mg/kg, time < 24 hrs, route iv; conditions: in vivo
[16] = AUC (0 to 24 hrs) in BALB/c mouse at 5 mg/kg, po measured upto 24 hrs by LC-MS/MS analysis; assay type: ADME, organism-based; parameters: dose 5 mg/kg, time < 24 hrs, route po; conditions: in vivo
[17] = Cmax in BALB/c mouse at 5 mg/kg, po measured upto 24 hrs by LC-MS/MS analysis; assay type: ADME, organism-based; parameters: dose 5 mg/kg, time < 24 hrs, route po; conditions: in vivo
[18] = Kinetic solubility of compound in simulated gastric fluid at pH 1.2 measured after 24 hrs by HPLC analysis; assay type: physicochemical; conditions: read-out: Kinetic_solubility
[19] = AUC (0 to infinity) in BALB/c mouse at 1 mg/kg, iv measured upto 24 hrs by LC-MS/MS analysis; assay type: ADME, organism-based; parameters: time < 24 hrs, dose 1 mg/kg, route iv; conditions: in vivo
[20] = biological target: Voltage-gated inwardly rectifying potassium channel KCNH2 (Homo sapiens, UniProt Q12809); test: Inhibition of human ERG potassium channel transfected in HEK293 cells by whole-cell patch clamp assay; assay type: toxicity, cell-based
Sequence of Voltage-gated inwardly rectifying potassium channel KCNH2 (Q12809 whole entry): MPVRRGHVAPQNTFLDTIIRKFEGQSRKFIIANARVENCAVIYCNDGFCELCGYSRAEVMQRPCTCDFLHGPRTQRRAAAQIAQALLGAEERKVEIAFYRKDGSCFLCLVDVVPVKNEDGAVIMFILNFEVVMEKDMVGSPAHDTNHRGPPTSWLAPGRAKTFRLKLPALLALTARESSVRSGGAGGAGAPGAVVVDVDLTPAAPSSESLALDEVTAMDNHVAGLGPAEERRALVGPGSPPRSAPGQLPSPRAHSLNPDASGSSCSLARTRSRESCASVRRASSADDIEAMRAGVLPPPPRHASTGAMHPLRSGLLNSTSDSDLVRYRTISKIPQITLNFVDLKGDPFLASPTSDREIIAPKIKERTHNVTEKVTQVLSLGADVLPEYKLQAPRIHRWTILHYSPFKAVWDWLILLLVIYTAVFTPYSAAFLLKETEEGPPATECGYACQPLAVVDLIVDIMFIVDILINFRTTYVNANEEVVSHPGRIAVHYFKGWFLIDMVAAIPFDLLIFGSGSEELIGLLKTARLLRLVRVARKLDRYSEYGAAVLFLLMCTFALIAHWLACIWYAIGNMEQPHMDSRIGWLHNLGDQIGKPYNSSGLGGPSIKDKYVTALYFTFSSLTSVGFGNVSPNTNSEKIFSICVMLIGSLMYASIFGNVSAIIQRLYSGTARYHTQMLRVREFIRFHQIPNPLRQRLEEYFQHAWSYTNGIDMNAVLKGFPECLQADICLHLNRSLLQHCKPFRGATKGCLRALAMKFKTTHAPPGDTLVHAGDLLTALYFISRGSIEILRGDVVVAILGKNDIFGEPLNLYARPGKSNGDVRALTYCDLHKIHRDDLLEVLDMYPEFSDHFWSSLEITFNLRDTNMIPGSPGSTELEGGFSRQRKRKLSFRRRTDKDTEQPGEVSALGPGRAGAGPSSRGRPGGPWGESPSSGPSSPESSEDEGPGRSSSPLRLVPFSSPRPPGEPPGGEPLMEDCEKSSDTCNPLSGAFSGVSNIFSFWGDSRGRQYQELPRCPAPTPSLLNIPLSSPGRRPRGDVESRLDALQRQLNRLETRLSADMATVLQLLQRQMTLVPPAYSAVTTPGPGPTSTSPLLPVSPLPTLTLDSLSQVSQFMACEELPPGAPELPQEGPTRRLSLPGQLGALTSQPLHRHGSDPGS

[21] = Half life in BALB/c mouse at 5 mg/kg, po measured upto 24 hrs by LC-MS/MS analysis; assay type: ADME, organism-based; conditions: in vivo
CYP2D6 = CYP2D6 (Homo sapiens, UniProt P10635); test: Inhibition of CYP2D6 (unknown origin) at 20 uM; assay type: ADME
Sequence of CYP2D6 (P10635 whole entry): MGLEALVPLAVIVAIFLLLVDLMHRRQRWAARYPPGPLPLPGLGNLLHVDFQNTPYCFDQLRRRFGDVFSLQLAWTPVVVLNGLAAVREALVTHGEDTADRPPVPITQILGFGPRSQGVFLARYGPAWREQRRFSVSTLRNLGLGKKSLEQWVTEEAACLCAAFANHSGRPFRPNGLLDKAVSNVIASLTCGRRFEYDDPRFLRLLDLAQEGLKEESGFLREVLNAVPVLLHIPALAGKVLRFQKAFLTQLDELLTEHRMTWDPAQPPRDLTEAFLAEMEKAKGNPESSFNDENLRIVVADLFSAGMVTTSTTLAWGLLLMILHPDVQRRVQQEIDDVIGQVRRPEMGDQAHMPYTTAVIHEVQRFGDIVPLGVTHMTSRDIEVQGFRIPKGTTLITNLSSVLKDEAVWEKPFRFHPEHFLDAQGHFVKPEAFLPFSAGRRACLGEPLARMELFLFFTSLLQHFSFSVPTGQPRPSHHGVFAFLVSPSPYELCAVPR

[22] = Half life in BALB/c mouse at 1 mg/kg, iv measured upto 24 hrs by LC-MS/MS analysis; assay type: ADME, organism-based; conditions: in vivo
CYP2E1 = CYP2E1 (Homo sapiens, UniProt P05181); test: Inhibition of CYP2E1 (unknown origin) at 20 uM; assay type: ADME
Sequence of CYP2E1 (P05181 whole entry): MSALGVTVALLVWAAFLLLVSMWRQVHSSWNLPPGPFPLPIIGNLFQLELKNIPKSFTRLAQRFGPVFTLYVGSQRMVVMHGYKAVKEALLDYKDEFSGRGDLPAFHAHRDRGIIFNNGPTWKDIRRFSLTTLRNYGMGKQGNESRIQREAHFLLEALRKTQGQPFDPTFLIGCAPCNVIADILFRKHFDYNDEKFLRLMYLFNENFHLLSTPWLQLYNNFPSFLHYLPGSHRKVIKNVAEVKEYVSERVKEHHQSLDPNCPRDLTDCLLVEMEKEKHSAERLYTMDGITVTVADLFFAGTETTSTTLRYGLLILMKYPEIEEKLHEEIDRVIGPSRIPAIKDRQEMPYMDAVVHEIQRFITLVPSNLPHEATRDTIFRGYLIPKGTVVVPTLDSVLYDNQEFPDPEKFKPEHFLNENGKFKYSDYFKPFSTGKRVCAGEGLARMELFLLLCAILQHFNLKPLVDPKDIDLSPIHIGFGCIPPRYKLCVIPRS

[23] = Metabolic stability in mouse liver microsomes assessed as half life; assay type: ADME, Microsome

| SMILES | pIC50 [1] | CL/F [2] | inhibition at 20 µM (CYP1A2) | clearance [3] | inhibition at 20 µM (CYP2C9) | Vd [4] | fraction unbound at 24 h [5] | Cmax [6] | microsomal CLint [7] | pIC50 [8] | pIC50 [9] | bioavailability [10] | half-life [11] | microsomal CLint [12] | pIC50 [13] | remaining at 1 h, 10 µM [14] | AUC(0-t) at 24 h [15] | AUC(0-t) at 24 h [16] | Cmax [17] | solubility kinetic at 24 h [18] | also measured |
| --- | --- | --- | --- | --- | --- | --- | --- | --- | --- | --- | --- | --- | --- | --- | --- | --- | --- | --- | --- | --- | --- |
| O=C(O)c1ccc(CNC(=O)c2c(Cc3ccc(F)cc3)sc3c2CCOC3)cc1 | < 5.00 | 38.5 mL/min/kg | 46% | 22.7 mL/min/kg | 44% | 6.14 L/kg | 0.062 | 2840 ng/mL | < 9.6 µL/min/mg | 7.61 | < 5.00 | 61.4% | > 2.42 h | < 9.6 µL/min/mg | < 5.00 | 92.1% | 684 ng·h/mL | 2100 ng·h/mL | 982 ng/mL | 2.97 µM (≈ 1.26 µg/mL) | AUC(0-inf) [19]: 735 ng·h/mL; pIC50 [20]: < 4.52; half-life [21]: 6.2 h; inhibition at 20 µM (CYP2D6): 65%; half-life [22]: 3.2 h; inhibition at 20 µM (CYP2E1): 31%; half-life [23]: > 2.42 h |
| C[C@H](NC(=O)c1c(Cc2cccc(C(F)(F)F)c2)sc2c1CCOC2)c1ccc(C(=O)O)cc1 | < 5.00 | 49.9 mL/min/kg | 60% | 24.6 mL/min/kg | 27% | 7.39 L/kg | 0.034 | 2800 ng/mL | < 9.6 µL/min/mg | 8.55 | < 5.00 | 52.3% | > 2.42 h | < 9.6 µL/min/mg | < 5.00 | 90.2% | 642 ng·h/mL | 1680 ng·h/mL | 664 ng/mL | < 1 µM | AUC(0-inf) [19]: 683 ng·h/mL; pIC50 [20]: < 4.52; half-life [21]: 3.5 h; inhibition at 20 µM (CYP2D6): 72%; half-life [22]: 3.4 h; inhibition at 20 µM (CYP2E1): 23%; half-life [23]: > 2.42 h |
